Where a SMILES comes first, the peptide text is derived from it.
Columns and labels:
[1] = system: cells of endothelial cell lineage
Experimental: In this illustrative example, cells of endothelial cell lineage used as target cells for the selection and screening process were human adipose-derived stem cells (“ADAS cells”). […] Fibroblasts (16 Lu fibroblast cell line) were used as non-target cells in the selection and screening process.
These peptides were tested in a variety of assay formats for binding specificity against a panel of cells and cell lines to compare binding to cells of endothelial cell lineage (e.g., human umbilical vein endothelial cells, human coronary artery endothelial cells, porcine coronary artery endothelial cells, and human endothelial progenitor cells) versus binding to cells of an origin other than endothelial cell lineage (e.g., human artery smooth muscle cells, porcine artery smooth muscle cells, platelets, and other mammalian cell lines).

[2] = Phage display selection and ELISA-type peptide binding to teflon
Source text: (§1) For example, a variety of different phage display libraries were screened for peptides that bind to a selected target substrate (e.g., a substrate selected to find a binding domain useful in the present invention). The substrate was either bound to or placed in (depending on the selected substrate) the wells of a 96 well microtiter plate. Nonspecific binding sites on the well surface of the polystyrene microtiter plate were blocked with a buffer containing 1% bovine serum albumin after overnight incubation at 4° C. The wells were then washed 5 times with a buffer containing phosphate buffered saline with Tween™ 20 (“PBS-T”). […] To detect phage that specifically bind to the selected substrate, enzyme-linked immunosorbent (ELISA-type) assays were performed using an anti-phage antibody conjugated to a detector molecule, followed by the detection and quantitation of the amount of detector molecule bound in the assay.
(§2) Relative binding strengths of the peptides were determined by testing serial dilutions of the peptide for binding to the selected substrate (as compared to a substrate used as a negative control; i.e. a substrate other than the selected substrate). Plotting the absorbance observed across the concentration range for each peptide sequence yielded a binding curve and rough dissociation constant (“KD”) of the peptides to its target substrate. […]

[3] = Phage display selection and ELISA-type peptide binding to polystyrene
Source text: For example, a variety of different phage display libraries were screened for peptides that bind to a selected target substrate (e.g., a substrate selected to find a binding domain useful in the present invention). The substrate was either bound to or placed in (depending on the selected substrate) the wells of a 96 well microtiter plate. Nonspecific binding sites on the well surface of the polystyrene microtiter plate were blocked with a buffer containing 1% bovine serum albumin after overnight incubation at 4° C. The wells were then washed 5 times with a buffer containing phosphate buffered saline with Tween™ 20 (“PBS-T”). Each library was diluted in PBS-T and added at a concentration of 10^10 pfu/ml in a total volume of 100 μl. After 3 hour of incubation at room temperature with shaking at 50 rpm, unbound phage were removed by multiple washes with PBS-T. Bound phage were recovered by denaturation with 0.1 M glycine buffer, pH2.2. The eluted phage were neutralized with phosphate buffer, and then added to E. coli cells in growth media. The cell and phage-containing media was cultured by incubation overnight at 37° C. in a shaker at 200 rpm. Phage-containing supernatant was harvested from the culture after centrifuging the culture. […] To detect phage that specifically bind to the selected substrate, enzyme-linked immunosorbent (ELISA-type) assays were performed using an anti-phage antibody conjugated to a detector molecule, followed by the detection and quantitation of the amount of detector molecule bound in the assay.
as §2

[4] = Peptide binding to titanium beads (phage selection, ELISA-type dilution series)
Experimental: As a specific illustrative example, titanium (in percent: Ti6Al4V) beads of approximately 5/32 of an inch diameter were washed with 70% ethanol, 40% nitric acid, distilled water, 70% ethanol, and acetone to remove any surface contaminants. One titanium bead was placed per well of 96-well polypropylene plate. Nonspecific binding sites on the titanium and the surface of the polypropylene were blocked with 1% bovine serum albumin (BSA) in PBS. The plate was incubated for 1 hour at room temperature with shaking at 50 rpm. The wells were then washed 5 times with 300 μl of PBS. Each library was diluted in PBS+1% BSA and was added at a concentration of 10^10 pfu/ml in a total volume of 250 μl. […]
as §2
As a specific example, titanium beads were blocked with 1% BSA in PBS for 30 minutes at room temperature. […] Beads were washed two times with PBS-T. PNPP (p-nitrophenyl phosphate) was used to develop the assay, and the absorbance was recorded at 405 nm. […]

[5] = Phage display selection and ELISA-type peptide binding to polyurethane
Source text: as §1, §2

Compound: CC(C)C[C@H](NC(=O)[C@H](C)NC(=O)[C@H](C)NC(=O)[C@H](CO)NC(=O)[C@@H]1CCCN1C(=O)[C@H](CCCNC(=N)N)NC(=O)[C@H](CC(C)C)NC(=O)[C@H](CC(C)C)NC(=O)[C@H](CO)NC(=O)[C@@H](NC(=O)[C@H](Cc1c[nH]cn1)NC(=O)[C@H](CCC(N)=O)NC(=O)[C@H](CS)NC(=O)[C@H](CO)NC(=O)[C@H](CO)NC(=O)[C@@H](N)CO)C(C)C)C(=O)NCC(=O)N1CCC[C@H]1C(=O)N[C@@H](CC(=O)O)C(=O)N[C@@H](CC(N)=O)C(=O)N[C@@H](CS)C(=O)N[C@@H](CS)C(=O)N[C@@H](CO)C(=O)N[C@@H](CCCNC(=N)N)C(=O)NCC(=O)N[C@@H](CO)C(=O)N[C@@H](CO)C(=O)NCC(=O)N[C@@H](CCCCN)C(=O)O [SEQ ID NO:95] (H-SSSCQHVSLLRPSAALGPDNCCSRGSSGK-OH; N-terminus and C-terminus assumed)
- EC50 [1]: < 10 µM

Compound: CWSRFRLFMLFCMFYLVS [SEQ ID NO:55]
- binding specificity for teflon [2]: specifically bind to teflon

Compound: CC(C)C[C@H](NC(=O)[C@H](C)NC(=O)[C@H](C)NC(=O)[C@H](CO)NC(=O)[C@@H]1CCCN1C(=O)[C@H](CCCNC(=N)N)NC(=O)[C@H](CC(C)C)NC(=O)[C@H](CC(C)C)NC(=O)[C@H](CO)NC(=O)[C@@H](NC(=O)[C@H](Cc1c[nH]cn1)NC(=O)[C@H](CCC(N)=O)NC(=O)[C@H](CS)NC(=O)[C@H](CO)NC(=O)[C@H](CO)NC(=O)[C@@H](N)CO)C(C)C)C(=O)NCC(=O)N1CCC[C@H]1C(=O)N[C@@H](CC(=O)O)C(=O)N[C@@H](CC(N)=O)C(=O)N[C@@H](CS)C(=O)N[C@@H](CO)C(=O)N[C@@H](CCCNC(=N)N)C(=O)NCC(=O)N[C@@H](CO)C(=O)N[C@@H](CO)C(=O)NCC(=O)N[C@@H](CCCCN)C(=O)O [SEQ ID NO:96] (H-SSSCQHVSLLRPSAALGPDNCSRGSSGK-OH; N-terminus and C-terminus assumed)
- EC50 [1]: < 10 µM

Compound: FFGFDVYDMSNAL [SEQ ID NO:19]
- binding specificity for polystyrene [3]: substantially retain binding specificity for polystyrene

Compound: SDKSHKHWYSYESKYGGS [SEQ ID NO:74]
- binding specificity for titanium [4]: substantially retained binding specificity
- reduction in binding ([4]; as compared to SEQ ID NO:73 (two cysteines substituted by serine)): 10 fold

Compound: FSYSVSYAHPEGL [SEQ ID NO:21]
- binding specificity for polystyrene [3]: substantially retain binding specificity for polystyrene

Compound: FFPSSWYSHLGVL [SEQ ID NO:18]
- binding specificity for polystyrene [3]: substantially retain binding specificity for polystyrene

Compound: CIKYPFLYCCLLSLFLFS [SEQ ID NO:56]
- binding specificity for teflon [2]: specifically bind to teflon

Compound: SCYVNGHNSVWWVFWGVS (SCYVNGHNSVWVVVFWGVS) [SEQ ID NO:23]
- binding specificity for polyurethane [5]: specifically binds to polyurethane
